# From patent US20100069501A1, “Pharmaceutical Composition Comprising 6-Dimethylaminomethyl-1-(3-methoxy-phenyl)-cyclohexane-1,3-diol and Paracetamol” (GRUENENTHAL GmbH, priority 2008, published 2010)
# Structures can show the parent of a compound that is named as a salt.
# Tested on: inflammatory pain
# Test: Randall-Selitto test in rats (carrageenan-induced acute inflammation, mechanical nociceptive threshold)
# Assay type: in vivo
# Settings: rat; for time point of peak effect: substance applied alone, A i.v., paracetamol i.p.
# Procedure: The weight ratios of the components (a) and (b) that will lead to a supra-additive effect (synergistic effect) of the inventive pharmaceutical composition may be determined via the test of Randall and Selitto as described in Arch. Int. Pharmacodyn., 1957, 111: 409 to 419, which is a model for inflammatory pain. The respective part of the literature is hereby incorporated by reference and forms part of the present disclosure.
# Acute inflammation is induced by an intraplantar injection of 0.1 ml of a carrageenan solution (0.5% in distilled water) into one hind paw. The mechanical nociceptive threshold is measured 4 hours after carrageenan injection using an Algesiometer (Ugo Basile, Italy). The device generates a mechanical force with a linear increase over time. The force is applied to the dorsal surface of the inflamed rat hind paw via a cone-shaped stylus with a rounded tip (2 mm tip diameter). The nociceptive threshold is defined as the force (in grams) at which the rat vocalises (cut-off force 250 g). […] The antinociceptive and antihyperalgesic activity of the tested substance is expressed as percentages of the maximal possible effect (% MPE). The group size is n=10.
# The interactions studies presented herein were performed using equieffective doses of the two components, calculated from the ratio of the respective ED50 values of the components if administered alone.
# Thus, the time point of ED50 calculation of the combination corresponds to the timepoint of the peak effect of the respective compound.
compound,measurement,setting,value
"COc1cccc([C@@]2(O)C[C@H](O)CC[C@@H]2CN(C)C)c1 (racemic) [A, (1RS,3RS,6RS)-6-dimethylaminomethyl-1-(3-methoxy-phenyl)-cyclohexane-1,3-diol hydrochloride]",ED50,"iv, 0.25 h, i.v., 15 min p. appl. (peak effect), % MPE, n=10, read-out: ED50 of A applied alone",15.8 mg/kg
same,time point of peak effect,,15 min
CC(=O)Nc1ccc(O)cc1 [Paracetamol],time point of peak effect,,120 min
